Laboratory results published in patent US11370769B2, “TRPC5 inhibitors and methods of using same” (BOARD OF REGENTS OF THE UNIVERSITY OF NEBRASKA, priority 2017, dated 2022).

System: Dahl S rats
Test: Dahl salt-sensitive rat model of hypertension-induced FSGS
Type: in vivo
Experimental: Animals and chemicals: Littermates of wild-type (WT) and AT1R TgNeph-hAT1R/185 transgenic (AT1R Tg) rats were housed under a controlled environment with a 12-hour light-dark cycle and access to food and water ad libitum, unless otherwise described. All animal experiments were performed in accordance to the guidelines established and approved by the Animal Care and Use Committee at Brigham and Women's Hospital, Harvard Medical School (Animal Protocol No. 01538). AT1R Tg rats were placed in the Onset cohort when measured proteinuria was >5 mg/day (at approximately 12 weeks of age) on two separate 24-hour urine collections. AT1R Tg rats were placed in the Advanced cohort when measured proteinuria was >25 mg/day (at approximately 18 weeks of age) on two separate 24-hour urine collections. These thresholds were determined after detailed histologic and phenotypic characterization of AT1R Tg rats compared to WT littermates (all combined, n=91 WT rats and n=122 AT1R Tg rats were studied). The Dahl salt-sensitive (S) inbred strain is maintained at University of Mississippi Medical Center (UMMC) and was originally obtained from University of Toledo-College of Medicine (SS/Jr). All animal experiments performed at UMMC were in accordance to the guidelines established and approved by the Institutional Animal Care and Use Committee. Animals used for this studied were provided either low-salt diet [TD7034, 0.3% NaCl and/or high-salt diet [TD94217, 2.0% NaCl] from Harlan Teklad, Madison, Wis. For onset study, at 4 weeks of age, groups of age-matched male S were weaned to the low-salt diet and divided into two groups: vehicle (n=8) and AC1903 groups (n=8). At 6 weeks of age, both groups were placed on the high-salt diet and concurrently treated with either vehicle or AC1903 for 1-week (Onset). For Advanced study, similarly at 4 weeks of age, groups of age-matched male S were weaned to the low-salt diet and divided into two groups: vehicle (n=9) and AC1903 groups (n=11). At 6 weeks of age, both groups were placed on the high-salt diet. At week 7, concurrent with high-salt diet, animals were treated with either vehicle or AC1903 for 1-week (Advanced). At the conclusion of each study, animals were initially anesthetized under 2-3% isoflurane/O2 gas, a catheter attached to a fluid filled pressure transducer was placed in the aorta, isoflurane gas was reduced to 1.5%, and mean arterial pressure was measured for ˜5 min period using PowerLab 4/30 system (ADI Instruments, Co) as done previously. All chemicals were purchased from Sigma-Aldrich unless otherwise described.
Chemical preparation and IP administration: ML204 and AC1903 were prepared from powder in a single batch for each in vivo experiment to avoid variability. Immediately prior to injections, ML204 or AC1903 solution was placed on a heated shaker at 48° C. and 800 RPM. Vehicle was prepared in the same fashion. Injection volume was determined by body weight (2 mL vehicle/compound per kg body weight). Body weight was measured at the time of injection.
Urine collection and assay: For urine collections, rats were housed individually in a metabolic cage supplied with food and water. Urine was collected into a 50 mL falcon tube for 24 hours. Total urine volume was measured and then centrifuged at 3,200 rcf for 10 min at 4° C. Albumin quantification was done according to previously published protocol (11), involving multiple dilutions of urine from each animal compared to Bovine Serum Albumin (BSA) standards. Coumassie Blue stained gels were quantified by densitometry using ImageJ software. As an additional control, the rat ELISA Albumin kit (Exocell) was used for albumin quantification according to the manufacturer's recommendations and yielded the same results. Urine protein was measured using QuanTtest® Red Total Protein Assay System (Quantimetrix, Redondo Beach, Calif.) and expressed as mg protein/24 hours. […]

In the case of `c1ccc(Cn2c(NCc3ccco3)nc3ccccc32)cc1` [AC1903], the “numbers of podocytes per glomerulus” value (AC1903 treated Dahl S rats, stated similar to WT and AC1903-treated AT1R Tg rats) is reported as “approximately 120 podocytes/glom”, the BUN (AC1903 treatment) is reported as “no effect” and the body weight (AC1903 treatment) is reported as “no effect”. For the same molecule, the creatinine (AC1903 treatment) was “no effect”, the “mean arterial pressure (MAP)” value (AC1903 treatment) was “did not affect” and the “numbers of podocytes per glomerulus compared to vehicle-treated controls” value (Advanced, AC1903 50 mg/kg) was “higher”. For the same molecule, the proteinuria (Advanced: 50 mg/kg, treatment day 7 to day 14 of 2% NaCl) was “significant suppression of proteinuria” and the “rate of progressive proteinuria” value (Onset: 50 mg/kg twice daily i.p. from start of 2% NaCl diet, 1 week) was “significantly reduced”.
